Source: the supplement of paper PMC10307832

Assays:
Assay in all cases: relative viability (nuclei count vs DMSO), 5 days (fraction); higher = more cells survive
AZD1208 + Dasatinib = compound: N[C@@H]1CCCN(c2c(/C=C3\SC(=O)NC3=O)cccc2-c2ccccc2)C1 [AZD1208] + Cc1nc(Nc2ncc(C(=O)Nc3c(C)cccc3Cl)s2)cc(N2CCN(CCO)CC2)n1 [Dasatinib] (partner 0.075 µM)
Summary of the method: (§1)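 Five library-drug doses in √10 steps were combined with a fixed anchor-drug dose, or a single drug was given alone, by pin tool to lung cancer cell lines in 1536-well plates the day after seeding. Nuclei were stained and counted after 5 days. Relative viability is the nuclei count in treated wells over that in vehicle wells, taken as the median of duplicate plates.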

AZD1208 + Vorinostat = compound: N[C@@H]1CCCN(c2c(/C=C3\SC(=O)NC3=O)cccc2-c2ccccc2)C1 [AZD1208] + O=C(CCCCCCC(=O)Nc1ccccc1)NO [Vorinostat] (partner 1 µM)
Summary of the method: as §1

AZD1208 + Decitabine = compound: N[C@@H]1CCCN(c2c(/C=C3\SC(=O)NC3=O)cccc2-c2ccccc2)C1 [AZD1208] + Nc1ncn([C@H]2C[C@H](O)[C@@H](CO)O2)c(=O)n1 [Decitabine] (partner 2 µM)
Summary of the method: as §1

XMD14-99 + Vorinostat = compound: CN1CCN(CC1)C2=CC(=C(C=C2)NC3=NC(=C(S3)C(=O)C4=C(C=CC=C4Cl)Cl)N)OC [XMD14-99] + O=C(CCCCCCC(=O)Nc1ccccc1)NO [Vorinostat] (partner 1 µM)
Summary of the method: as §1

Cell Line | relative viability (AZD1208 + Dasatinib; first compound 0.08 µM) | relative viability (AZD1208 + Dasatinib; first compound 0.253 µM) | relative viability (AZD1208 + Dasatinib; first compound 0.8 µM) | relative viability (AZD1208 + Dasatinib; first compound 8 µM) | relative viability (AZD1208 + Vorinostat; first compound 0.08 µM) | relative viability (AZD1208 + Vorinostat; first compound 0.253 µM) | relative viability (AZD1208 + Vorinostat; first compound 0.8 µM) | relative viability (AZD1208 + Vorinostat; first compound 2.53 µM) | relative viability (AZD1208 + Vorinostat; first compound 8 µM) | relative viability (AZD1208 + Decitabine; first compound 0.08 µM) | relative viability (AZD1208 + Decitabine; first compound 0.253 µM) | relative viability (AZD1208 + Decitabine; first compound 0.8 µM) | relative viability (AZD1208 + Decitabine; first compound 2.53 µM) | relative viability (AZD1208 + Decitabine; first compound 8 µM) | relative viability (XMD14-99 + Vorinostat; first compound 0.08 µM) | relative viability (XMD14-99 + Vorinostat; first compound 0.8 µM) | relative viability (XMD14-99 + Vorinostat; first compound 2.53 µM) | relative viability (XMD14-99 + Vorinostat; first compound 8 µM) | relative viability (AZD1208 + Dasatinib; first compound 2.53 µM)
COR-L 105 | 0.34 | 0.34 | 0.308 | 0.356 | 1.04 | 0.833 | 0.898 | 0.832 | 0.779 | 0.734 | 0.672 | 0.633 | 0.628 | 0.538 | 0.833 | 0.944 | 0.662 | 0.663 | 
NCI-H1355 | 0.732 | 0.55 | 0.628 | 0.48 | 0.638 | 0.672 | 0.558 | 0.603 | 0.544 | 0.331 | 0.327 | 0.335 | 0.341 | 0.33 | 0.636 | 0.604 | 0.586 | 0.556 | 0.641
H3255 | 0.438 | 0.413 | 0.362 | 0.43 | 0.831 | 0.869 | 0.772 | 0.747 | 0.74 | 0.689 | 0.714 | 0.56 | 0.589 | 0.523 | 0.756 | 0.74 | 0.717 | 0.591 | 0.385
NCI-H2009 | 0.257 | 0.267 | 0.279 | 0.304 | 0.747 | 0.777 | 0.698 | 0.788 | 0.67 | 0.41 | 0.374 | 0.346 | 0.39 | 0.336 | 0.815 | 0.727 | 0.63 | 0.423 | 0.249
NCI-H1734 | 0.41 | 0.435 | 0.426 | 0.307 | 0.731 | 0.739 | 0.756 | 0.663 | 0.599 | 0.534 | 0.466 | 0.44 | 0.424 | 0.409 | 0.803 | 0.785 | 0.799 | 0.581 | 0.393
HOP-62 | 0.679 | 0.712 | 0.541 | 0.647 | 0.657 | 0.856 | 0.6 | 0.455 | 0.572 | 0.231 | 0.212 | 0.22 | 0.254 | 0.24 | 0.668 | 0.804 | 0.661 | 0.441 | 0.572
LOU-NH91 | 0.57 | 0.551 | 0.496 | 0.491 | 0.965 | 0.955 | 0.864 | 0.838 | 0.865 | 0.766 | 0.798 | 0.793 | 0.798 | 0.798 | 0.947 | 1.03 | 0.805 | 0.725 | 0.496
ChaGo-K-1 | 0.657 | 0.624 | 0.518 | 0.514 | 0.732 | 0.831 | 0.557 | 0.637 | 0.608 | 0.522 | 0.509 | 0.399 | 0.481 | 0.465 | 0.741 | 0.73 | 0.68 | 0.719 | 0.539
NCI-H23 | 0.641 | 0.887 | 0.668 | 0.614 | 0.508 | 0.629 | 0.614 | 0.602 | 0.5 | 0.292 | 0.285 | 0.308 | 0.329 | 0.275 | 0.641 | 0.581 | 0.604 | 0.464 | 0.714
